This note sets out measurements from PubChem BioAssay (NCI).

For the experiment, the system named is MDA-MB-468 breast. Kind of experiment: inhibition of tumour cell growth, NCI panel, 48 h.

Structures are written as SMILES. Where “and” joins values, the source holds several entries; their conditions need not be identical. Equal values may be shown once.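 Each compound was tested at five concentrations against cells in 96-well plates for 48 hours. GI50: concentration for 50% inhibition of growth. TGI marks complete inhibition of growth.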

As for `NC(=O)c1ncn(C2OC(CO)C(O)C2O)n1` (centres undefined), the GI50 was 69700 nM and the TGI was greater than 100000 nM.

As to `Cn1c(=O)c(Sc2ccccc2F)cc2cnc(NC3CCOCC3)nc21`, the GI50 was greater than 25000 nM and the TGI was greater than 25000 nM.

Regarding `NCC(=O)Nc1ccc(-n2nc(C(F)(F)F)cc2-c2ccc3c(ccc4ccccc43)c2)cc1`, the GI50 is 1560 nM and the TGI turned out to be 3020 nM.

As to `O=C(O[C@H]1CN[C@H](C#Cc2cc3ncnc(Nc4ccc(Cc5ccccc5)cc4)c3s2)C1)N1CCOCC1`, the GI50 is 1270 nM and the TGI turned out to be 6370 nM.

As for `CCCCN(CCCC)c1cc(C(=O)CCCCCN)c2ccccc2n1`, the GI50 was 1430 nM and the TGI was determined as 3050 nM.

With `COc1ccc(Nc2nc(NCc3ccccc3)c3ccccc3n2)cc1`, the GI50 was 1610 nM and the TGI turned out to be 3370 nM.

`COc1cc(C2=Nc3c/c(=C\c4c(O)[nH]c5ccc(Cl)cc45)ccc3=N2)cc(OC)c1OC`: the GI50 is 1970 nM and the TGI amounted to 4410 nM.

With `O=C(Nc1cccc(-n2cc(-c3ccncc3)c(-c3cc(O)cc(Cl)c3)n2)c1)Nc1ccc(Cl)c(Cl)c1`, the GI50 is 1710 nM and the TGI was 7090 nM.

As to `O=C(/C=C/c1ccccc1Cl)c1ccc(O)cc1`, the GI50 was 2770 nM and the TGI was found to be 13000 nM.

As for `COc1ccc(S(=O)(=O)Nc2cc(/C=C\c3cc(OC)c(OC)c(OC)c3)cc(OC)c2OC)cc1OC`, the GI50 is 269 nM and the TGI was found to be 1290 nM.

With `Cc1oncc1C(=O)Nc1ccc(C(F)(F)F)cc1`, the GI50 is 37100 nM and the TGI is greater than 100000 nM.

As for `Clc1ccc(N/N=C/c2ccccn2)nc1`, the GI50 was 260 nM and the TGI came to 1510 nM.

In the case of `C=C1C(=O)O[C@H]2[C@H]1CC/C(COC(=O)NCc1c[nH]c3ccc(OC)cc13)=C\CC[C@@]1(C)O[C@@H]21`, the GI50 is 1320 nM and the TGI was found to be 4620 nM.

As for `CN(C)c1cc2c(cc1Sc1nc3c(N)nccc3n1CCNCC(C)(C)C)OCO2`, the GI50 is 268 nM and the TGI was found to be 888 nM.

Consider `CCNC(=O)Nc1ccc(-c2nc3c(c(N4CCOC[C@@H]4C)n2)CCN(C2COC2)C3)cc1`, for which the GI50 was 135 nM and 125 nM; the TGI was 1720 nM and 1380 nM.

With `CCCCCCCCCCCCCCCCCC(=O)[O][Sn]([CH2]CCC)([CH2]CCC)[CH2]CCC`, the GI50 was 83.5 nM and the TGI worked out at 214 nM.

On to `Cc1cc(N2CCOCC2)nc(N(CCNc2ccnc3cc(Cl)ccc23)Cc2ccco2)n1`, for which the GI50 was 2090 nM and the TGI turned out to be 6410 nM.

Regarding `Clc1cccc(Cn2cc(Cc3cn(Cc4cccc(Cl)c4)c4ccccc34)c3ccccc32)c1`, the GI50 is 17000 nM and the TGI was 37300 nM.

As for `COc1c(Nc2ncc(Cl)c(N[C@@H]3[C@H]4C=CC(C4)[C@@H]3C(N)=O)n2)ccc2c1CC[C@@H](N1CCOCC1)CC2`, the GI50 was 2200 nM and the TGI came out at 8130 nM.

For the compound `Cc1ccccc1NC(=O)N/C(N)=N/c1nc2ccccc2s1`, the GI50 was 233 nM and the TGI was greater than 100000 nM.

Consider `CCc1ccc(/C(C#N)=C/C=C/c2ccccc2)cc1`, for which the GI50 is 838 nM and the TGI was found to be 9870 nM.

Take `C[C@H]1O[C@@H](O[C@H]2[C@@H](O)C[C@H](O[C@H]3[C@@H](O)C[C@H](O[C@H]4CC[C@]5(C)C6C[C@@H](O)[C@]7(C)[C@@H](C8=CC(=O)OC8)CC[C@]7(O)C6CC[C@@H]5C4)O[C@@H]3C)O[C@@H]2C)C[C@H](O)[C@@H]1O` (some centres undefined): the GI50 is 148 nM and the TGI was found to be 465 nM.

`O=C1OCC2=C1C(c1ccccc1)c1cc3c(cc1N2CCO)CCC3` (centres undefined): the GI50 is 55.9 nM and the TGI came to 156 nM.

Take `COc1cccc(N2CCN(c3ncnc4c3[nH]c3ccc(F)cc34)C[C@@H]2C)c1`: the GI50 was 1590 nM and the TGI came to 5310 nM.

Consider `CC1=C(CN(O)C(N)=O)C2=C(C)C3(CC3)[C@@](C)(O)C(=O)C2=C1`, for which the GI50 was 141 nM and the TGI was found to be 347 nM.

As for `C=CC[Se]C(=O)c1ccccc1OC(C)=O`, the GI50 is 1780 nM and the TGI stood at 3750 nM.

In the case of `O=S(=O)(c1ccc2c(c1)C(=NO)c1cc(S(=O)(=O)N3CCCCC3)ccc1-2)N1CCCCC1`, the GI50 was 237 nM and 137 nM; the TGI was 608 nM and 277 nM.

For `Clc1ccc(-c2nc(-c3c[nH]c4ncccc34)cs2)cc1`, the GI50 was greater than 100000 nM and the TGI is greater than 100000 nM.

Consider `CN(C)c1cc2c(Nc3ccc4nc(Cc5ccccc5)[nH]c4c3)ncnc2cn1`, for which the GI50 is greater than 9600 nM and the TGI was greater than 25000 nM.

For `O=C(/C=C\c1cccc([N+](=O)[O-])c1)c1ccccc1`, the GI50 is 1650 nM and the TGI came out at 9510 nM.

As to `CCN(CC)CCC(CNc1c2ccc([N+](=O)[O-])cc2nc2cc(OC)c(OC)cc12)c1ccccc1` (centres undefined), the GI50 is 324 nM and 229 nM; the TGI was 1630 nM and 1220 nM.

In the case of `COC(=O)c1c2c(c[n+]([O-])c1C)C(=O)C(NCc1ccccc1)=CC2=O`, the GI50 is 232 nM and the TGI was determined as 672 nM.

On to `COc1cccc(C2=NN(C(C)=O)C(c3cc(OC)c(OC)c(OC)c3)C2)c1` (centres undefined), for which the GI50 was 1010 nM and the TGI was greater than 30900 nM.

For the compound `NC(=O)Cc1ccccc1Oc1nccc(-c2c(-c3ccc(F)cc3)ncn2C2CCNCC2)n1`, the GI50 is 8200 nM and the TGI is greater than 25000 nM.

In the case of `CCN1CCN(CCNc2nccc(-c3c(-c4cccc(O)c4)nc4sccn34)n2)S1(=O)=O`, the GI50 is 9040 nM and 12500 nM; the TGI is 32500 nM and 36600 nM.

On to `Cc1nc(NC(=O)COc2cccc(/C=C3\COc4ccccc4C3=O)c2)sc1C`, for which the GI50 is 1760 nM and the TGI amounted to 3840 nM.

`Nc1cccc(-c2nc3sccn3c2-c2ccnc(NCCCNS(=O)(=O)c3ccc(C(F)(F)F)cc3)n2)c1`: the GI50 is 2440 nM and the TGI was determined as 33800 nM.

In the case of `O=[N+]([O-])c1ccc(Oc2cccnc2)c([N+](=O)[O-])c1`, the GI50 was 3060 nM and the TGI turned out to be 13800 nM.

Consider `O=Cc1ncc(-c2ccc(C(F)(F)F)cc2)c(NC2CCCCCC2)n1`, for which the GI50 was greater than 10000 nM and the TGI is greater than 10000 nM.

As for `O=C(c1ccc(F)c(F)c1Nc1ccc(I)cc1F)N1CC(O)([C@H]2CCCCN2)C1`, the GI50 is 4520 nM and the TGI was 10700 nM.

For `N#Cc1cc(-c2ccccc2)[nH]c1-c1nccc2ccccc12`, the GI50 is 3330 nM and the TGI is 44900 nM.

For `O=C(NNc1nc2cc(F)ccc2n2cccc12)c1ccncn1`, the GI50 was 293 nM and the TGI worked out at 1650 nM.

For `O=C1OCC2=C1C(c1cccc([N+](=O)[O-])c1)c1cc3c(cc1N2CCO)CCC3` (centres undefined), the GI50 was 147 nM and the TGI came out at 8880 nM.

Regarding `CC(C)[C@@H]1NC(=O)[C@]2(C)CSC(=N2)c2csc(n2)CNC(=O)C[C@@H](/C=C/CCS)OC1=O`, the GI50 is 206 nM and the TGI is 4430 nM.

In the case of `O=C(/C=C/c1ccccc1O)c1ccccc1`, the GI50 was 6060 nM and the TGI stood at 19200 nM.

As for `CCOc1ccc(/C=N/Nc2cc(C)nc3ccc(Cl)cc23)cc1`, the GI50 is 1730 nM and the TGI came out at 3270 nM.

As for `CNC(=O)c1cc(Oc2ccc3nc(NC(=O)c4cc(C(F)(F)F)cc(C(F)(F)F)c4)sc3c2)ccn1`, the GI50 was 3180 nM and the TGI was determined as 14200 nM.

For `COC(=O)C1=C(C(=O)Nc2cccnc2)C2OC1(C(Cc1ccccc1)Oc1ccccc1)C1OC21` (centres undefined), the GI50 is 1720 nM and the TGI was 4250 nM.

As for `COc1cc(-c2nn(C)nc2-c2cc3ccccc3s2)cc(OC)c1OC`, the GI50 was 82.8 nM and the TGI was greater than 100000 nM.

On to `C[C@H](Nc1ccc(C#N)n(C)c1=O)c1cc2cc(Cl)ccc2[nH]c1=O`, for which the GI50 was 21600 nM and the TGI turned out to be 84000 nM.

Regarding `CCS(=O)(=O)c1ccc(OC)c(Nc2ncc(-c3cccc(-c4ccccc4F)c3)o2)c1`, the GI50 was 4950 nM and the TGI is greater than 25000 nM.

For `O=C(Nc1cccnc1)c1cccs1`, the GI50 was 603 nM and the TGI was greater than 100000 nM.
